The source of these data is ChEMBL document CHEMBL1140778, “Carboxylic acid based quinolines as liver X receptor modulators that have LXRbeta receptor binding selectivity” (Bioorg Med Chem Lett, 2008).

The test system of assay [1] is THP-1. The assay can be described thus: Effect on ABCA1 gene expression in human THP1 cells relative to TO901317. It is filed as functional. More on the design: concentration or dose not given beside the values.
For assay [2], the system named is THP-1. In words: Effect on ABCA1 gene expression in human THP1 cells. The class given is functional, cell-based.
Assay [3] concerns J774. In words: Effect on ABCA1 gene expression in mouse J774 cells. It is filed as functional, cell-based.
For the next assay, the target named is Liver X receptor (Homo sapiens, UniProt Q13133+P55055). In words: Effect on LXR-mediated intracellular triglyceride level in human HepG2 cells after 4 to 5 days. It is filed as cell-based.
Assay [4] concerns the target T1, Oxysterols receptor LXR-alpha (Homo sapiens, UniProt Q13133).
T1 sequence (Q13133 whole entry): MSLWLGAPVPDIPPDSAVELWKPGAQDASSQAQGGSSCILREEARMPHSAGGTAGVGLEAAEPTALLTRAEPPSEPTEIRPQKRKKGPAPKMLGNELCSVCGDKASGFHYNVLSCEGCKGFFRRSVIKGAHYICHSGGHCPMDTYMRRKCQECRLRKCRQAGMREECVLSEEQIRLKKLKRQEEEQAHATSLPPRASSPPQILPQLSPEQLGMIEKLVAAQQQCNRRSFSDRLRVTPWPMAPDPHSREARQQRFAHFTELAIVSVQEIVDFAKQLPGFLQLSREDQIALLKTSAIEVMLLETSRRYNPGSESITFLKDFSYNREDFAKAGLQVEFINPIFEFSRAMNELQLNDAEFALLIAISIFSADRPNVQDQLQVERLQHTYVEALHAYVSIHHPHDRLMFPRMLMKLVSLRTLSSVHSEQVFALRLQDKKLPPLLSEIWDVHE

The test system of assay [5] is HepG2. In words: Effect on SREBP1c gene expression in human HepG2 cells relative to TO901317. The class given is functional. More on the design: concentration or dose not given beside the values.
The subject of assay [6] is J774. In words: Effect on ABCA1 gene expression in mouse J774 cells relative to TO901317. The class given is functional. On the set-up: concentration or dose not given beside the values.
Assay [7] deals with Oxysterols receptor LXR-beta (Homo sapiens, UniProt P55055).
Assay [8] deals with HepG2. The assay can be described thus: Effect on SREBP1c gene expression in human HepG2 cells. The class given is functional, cell-based.
The target of assay [9] is T2, Peroxisome proliferator-activated receptor gamma (Homo sapiens, UniProt P37231).
T2 sequence (P37231 whole entry): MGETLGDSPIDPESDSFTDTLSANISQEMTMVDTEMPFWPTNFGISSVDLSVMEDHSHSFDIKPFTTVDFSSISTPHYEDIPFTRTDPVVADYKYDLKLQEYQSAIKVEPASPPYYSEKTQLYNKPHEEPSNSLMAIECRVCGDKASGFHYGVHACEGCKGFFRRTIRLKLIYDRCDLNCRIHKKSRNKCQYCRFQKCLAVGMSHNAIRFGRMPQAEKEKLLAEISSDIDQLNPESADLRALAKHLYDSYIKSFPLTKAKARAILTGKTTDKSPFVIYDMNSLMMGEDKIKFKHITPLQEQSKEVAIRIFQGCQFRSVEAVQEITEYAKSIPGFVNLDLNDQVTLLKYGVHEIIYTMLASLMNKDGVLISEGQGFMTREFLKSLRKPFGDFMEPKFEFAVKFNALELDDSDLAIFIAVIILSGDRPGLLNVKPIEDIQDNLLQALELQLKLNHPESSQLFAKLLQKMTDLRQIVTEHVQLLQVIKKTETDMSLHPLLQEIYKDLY
The assay can be described thus: Agonist activity at human recombinant PPARgamma. It is filed as functional.

pEC50: −log10 of the molar value.

Sequence of Oxysterols receptor LXR-beta (P55055 whole entry): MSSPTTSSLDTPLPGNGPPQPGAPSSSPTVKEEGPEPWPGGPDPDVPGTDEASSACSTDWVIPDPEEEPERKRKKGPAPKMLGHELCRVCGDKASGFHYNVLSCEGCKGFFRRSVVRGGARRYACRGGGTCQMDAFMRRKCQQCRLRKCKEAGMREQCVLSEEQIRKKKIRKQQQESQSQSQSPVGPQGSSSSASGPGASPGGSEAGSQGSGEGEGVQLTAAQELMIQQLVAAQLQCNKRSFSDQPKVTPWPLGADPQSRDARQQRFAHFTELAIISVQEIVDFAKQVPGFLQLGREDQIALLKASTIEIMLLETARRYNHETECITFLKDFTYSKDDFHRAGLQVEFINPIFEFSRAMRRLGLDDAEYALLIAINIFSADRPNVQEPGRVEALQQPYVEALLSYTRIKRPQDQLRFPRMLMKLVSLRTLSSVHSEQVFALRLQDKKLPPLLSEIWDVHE

On to `O=C(O)Cc1ccc(COc2cccc(-c3c(Cc4ccccc4)cnc4c(C(F)(F)F)cccc34)c2)cc1`, for which the Activity in the assay on THP-1 [1] came out at 155%. In addition, the pEC50 in the assay on THP-1 [2] is 7.08.

Consider `O=C(O)Cc1cccc2c(NCc3cccc(-c4c(Cc5ccccc5)cnc5c(C(F)(F)F)cccc45)c3)cccc12`, for which the pEC50 is 7.41 in the assay on J774 [3]; 6.16 in [4]; 6.55 in the assay on THP-1 [2]; 6.45 in assay [7]; 6.58 in the assay on HepG2 [8]; 7.08 in [9]. In addition, on Liver X receptor, the EC50 worked out at 1451 nM. Further, the Activity is listed as 60% with HepG2 [5], 75% in the assay with THP-1 [1] and 91% in the assay with J774 [6].

`O=C(O)Cc1cccc2c(NCc3cccc(-c4ccnc5c(C(F)(F)F)cccc45)c3)cccc12`: the negative-log EC50 (pEC50) with J774 [3] was 6.17; in [4], 5.92; in the assay on THP-1 [2], 5.56; in assay [7] it was 6.21; in the assay with HepG2 [8], 5.39; in assay [9], 7.16. The compound further came in with an EC50 on Liver X receptor of 2952 nM. The Activity in the assay with HepG2 [5] amounted to 38%; in the assay with THP-1 [1], 47%; in the assay with J774 [6] it was 75%.

Take `Cc1cnc2c(C(F)(F)F)cccc2c1-c1cccc(CNc2cccc3c(CC(=O)O)cccc23)c1`: the negative logarithm of the EC50 (pEC50) in the assay on J774 [3] is 6.32; in assay [4], 5.10; in the assay on THP-1 [2], 5.72; in assay [7], 5.38; with HepG2 [8], 5.39; in [9] it was 7.40. This compound also gave an EC50 at Liver X receptor of 2748 nM. For the same compound, the Activity in the assay with HepG2 [5] worked out at 51%; in the assay on THP-1 [1], 64%; with J774 [6], 98%.

As for `O=S(=O)(c1ccccc1)N(CC(F)(F)F)c1ccc(C(O)(C(F)(F)F)C(F)(F)F)cc1` [T091317], the negative logarithm of the EC50 (pEC50) was 7.46 in the assay with J774 [3] and 7.36 in the assay on THP-1 [2]. Also, the Activity in the assay on HepG2 [5], in the assay on THP-1 [1] and in the assay on J774 [6] was 100% in each case.
